Results: ChEMBL document CHEMBL3885881, “DrugMatrix”

Organism: Rattus norvegicus
Experiment: DrugMatrix - Regimen: Daily Repeat
Type: toxicity, organism-based, Sprague-Dawley
Design: regimen Daily Repeat, gender Male, age 6-8 weeks
Settings: in vivo, po, route oral GAVAGE, vehicle .5 % CMC; for ABSOLUTE BASOPHIL / ABSOLUTE EOSINOPHIL / ABSOLUTE LYMPHOCYTE / ABSOLUTE MONOCYTE / ABSOLUTE SEGMENTED NEUTROPHIL / BASOPHIL / EOSINOPHIL / ERYTHROCYTE COUNT / HEMATOCRIT / HEMOGLOBIN / LEUKOCYTE COUNT / LYMPHOCYTE / MEAN CORPUSCULAR HEMOGLOBIN / MEAN CORPUSCULAR HEMOGLOBIN CONCENTRATION / MEAN CORPUSCULAR VOLUME / MONOCYTE / NEUTROPHIL / NUCLEATED RED BLOOD CELLS / PLATELET COUNT: tissue Blood; for ALANINE AMINOTRANSFERASE / ALBUMIN / ALKALINE PHOSPHATASE / ASPARTATE AMINOTRANSFERASE / BLOOD UREA NITROGEN / CARBON DIOXIDE / CHLORIDE / CHOLESTEROL / CREATINE PHOSPHOKINASE / CREATININE / GLUCOSE / LACTATE DEHYDROGENASE / LIPASE / PHOSPHORUS / POTASSIUM / SODIUM / TOTAL BILIRUBIN / TOTAL PROTEIN / URIC ACID: tissue Plasma
[1] = 2 mg/kg, 72 h, dose level Low, time 3 day
[2] = 2 mg/kg, 120 h, dose level Low, time 5 day
[3] = 83 mg/kg, 72 h, dose level High, time 3 day
[4] = 83 mg/kg, 120 h, dose level High, time 5 day

Q: Which results are given for `Nc1cc(N2CCCCC2)nc(N)[n+]1[O-]` [MINOXIDIL]?
A: ABSOLUTE BASOPHIL [1]: 0 CELLS/uL; ABSOLUTE EOSINOPHIL [1]: 0 CELLS/uL; ABSOLUTE LYMPHOCYTE [1]: 9089 CELLS/uL; ABSOLUTE MONOCYTE [1]: 42.33 CELLS/uL; ABSOLUTE SEGMENTED NEUTROPHIL [1]: 735.33 CELLS/uL; BASOPHIL [1]: 0%; EOSINOPHIL [1]: 0%; ERYTHROCYTE COUNT [1]: 4.78 x10E6/uL; HEMATOCRIT [1]: 30.6%; HEMOGLOBIN [1]: 12.57 G/DL; LEUKOCYTE COUNT [1]: 9.87 x10E3/uL; LYMPHOCYTE [1]: 92%; MEAN CORPUSCULAR HEMOGLOBIN [1]: 26.3 pg; MEAN CORPUSCULAR HEMOGLOBIN CONCENTRATION [1]: 41.1 G/DL; MEAN CORPUSCULAR VOLUME [1]: 64.07 fL; MONOCYTE [1]: 0.33%; NEUTROPHIL [1]: 7.67%; NUCLEATED RED BLOOD CELLS [1]: 0 /100WBC; PLATELET COUNT [1]: 1041 x10E3/uL; ALANINE AMINOTRANSFERASE [1]: 50.33 u/L; ALBUMIN [1]: 4.3 G/DL; ALKALINE PHOSPHATASE [1]: 415 u/L; ASPARTATE AMINOTRANSFERASE [1]: 94.33 u/L; BLOOD UREA NITROGEN [1]: 18 mg/dL; CARBON DIOXIDE [1]: 35.33 mmol/L; CHLORIDE [1]: 100.67 MEQ/L; CHOLESTEROL [1]: 74.67 mg/dL; CREATINE PHOSPHOKINASE [1]: 368.67 u/L; CREATININE [1]: 0.23 mg/dL; GLUCOSE [1]: 127.67 mg/dL; LACTATE DEHYDROGENASE [1]: 159 u/L; LIPASE [1]: 10 u/L; PHOSPHORUS [1]: 11.3 mg/dL; POTASSIUM [1]: 6.23 MEQ/L; SODIUM [1]: 147.5 MEQ/L; TOTAL BILIRUBIN [1]: 0.1 mg/dL; TOTAL PROTEIN [1]: 6.03 G/DL; URIC ACID [1]: 0.93 mg/dL; ABSOLUTE BASOPHIL [2]: 0 CELLS/uL; ABSOLUTE EOSINOPHIL [2]: 0 CELLS/uL; ABSOLUTE LYMPHOCYTE [2]: 14468 CELLS/uL; ABSOLUTE MONOCYTE [2]: 213.67 CELLS/uL; ABSOLUTE SEGMENTED NEUTROPHIL [2]: 818.33 CELLS/uL; BASOPHIL [2]: 0%; EOSINOPHIL [2]: 0%; ERYTHROCYTE COUNT [2]: 5.34 x10E6/uL; HEMATOCRIT [2]: 33.6%; HEMOGLOBIN [2]: 13.27 G/DL; LEUKOCYTE COUNT [2]: 15.5 x10E3/uL; LYMPHOCYTE [2]: 93.33%; MEAN CORPUSCULAR HEMOGLOBIN [2]: 24.8 pg; MEAN CORPUSCULAR HEMOGLOBIN CONCENTRATION [2]: 39.47 G/DL; MEAN CORPUSCULAR VOLUME [2]: 62.9 fL; MONOCYTE [2]: 1.33%; NEUTROPHIL [2]: 5.33%; NUCLEATED RED BLOOD CELLS [2]: 0 /100WBC; PLATELET COUNT [2]: 1308.33 x10E3/uL; ALANINE AMINOTRANSFERASE [2]: 52 u/L; ALBUMIN [2]: 4.33 G/DL; ALKALINE PHOSPHATASE [2]: 362.67 u/L; ASPARTATE AMINOTRANSFERASE [2]: 78.67 u/L; BLOOD UREA NITROGEN [2]: 18 mg/dL; CARBON DIOXIDE [2]: 33 mmol/L; CHLORIDE [2]: 102 MEQ/L; CHOLESTEROL [2]: 75.33 mg/dL; CREATINE PHOSPHOKINASE [2]: 156.33 u/L; CREATININE [2]: 0.2 mg/dL; GLUCOSE [2]: 153 mg/dL; LACTATE DEHYDROGENASE [2]: 135.67 u/L; LIPASE [2]: 8.67 u/L; PHOSPHORUS [2]: 14.1 mg/dL; POTASSIUM [2]: 6.87 MEQ/L; SODIUM [2]: 146.73 MEQ/L; TOTAL BILIRUBIN [2]: 0.27 mg/dL; TOTAL PROTEIN [2]: 6.27 G/DL; URIC ACID [2]: 1.43 mg/dL; ABSOLUTE BASOPHIL [3]: 0 CELLS/uL; ABSOLUTE EOSINOPHIL [3]: 0 CELLS/uL; ABSOLUTE LYMPHOCYTE [3]: 11593 CELLS/uL; ABSOLUTE MONOCYTE [3]: 0 CELLS/uL; ABSOLUTE SEGMENTED NEUTROPHIL [3]: 1707 CELLS/uL; BASOPHIL [3]: 0%; EOSINOPHIL [3]: 0%; ERYTHROCYTE COUNT [3]: 4.83 x10E6/uL; HEMATOCRIT [3]: 30.37%; HEMOGLOBIN [3]: 12.7 G/DL; LEUKOCYTE COUNT [3]: 13.3 x10E3/uL; LYMPHOCYTE [3]: 87.67%; MEAN CORPUSCULAR HEMOGLOBIN [3]: 26.3 pg; MEAN CORPUSCULAR HEMOGLOBIN CONCENTRATION [3]: 41.83 G/DL; MEAN CORPUSCULAR VOLUME [3]: 62.8 fL; MONOCYTE [3]: 0%; NEUTROPHIL [3]: 12.33%; NUCLEATED RED BLOOD CELLS [3]: 0 /100WBC; PLATELET COUNT [3]: 1119.33 x10E3/uL; ALANINE AMINOTRANSFERASE [3]: 40.33 u/L; ALBUMIN [3]: 4.27 G/DL; ALKALINE PHOSPHATASE [3]: 346.33 u/L; ASPARTATE AMINOTRANSFERASE [3]: 73.67 u/L; BLOOD UREA NITROGEN [3]: 18.33 mg/dL; CARBON DIOXIDE [3]: 30.33 mmol/L; CHLORIDE [3]: 103.33 MEQ/L; CHOLESTEROL [3]: 70.33 mg/dL; CREATINE PHOSPHOKINASE [3]: 164 u/L; CREATININE [3]: 0.15 mg/dL; GLUCOSE [3]: 140 mg/dL; LACTATE DEHYDROGENASE [3]: 144 u/L; LIPASE [3]: 9.33 u/L; PHOSPHORUS [3]: 12.47 mg/dL; POTASSIUM [3]: 6.31 MEQ/L; SODIUM [3]: 145.1 MEQ/L; TOTAL BILIRUBIN [3]: 0.17 mg/dL; TOTAL PROTEIN [3]: 5.67 G/DL; URIC ACID [3]: 1.33 mg/dL; ABSOLUTE BASOPHIL [4]: 0 CELLS/uL; ABSOLUTE EOSINOPHIL [4]: 0 CELLS/uL; ABSOLUTE LYMPHOCYTE [4]: 12306 CELLS/uL; ABSOLUTE MONOCYTE [4]: 270 CELLS/uL; ABSOLUTE SEGMENTED NEUTROPHIL [4]: 990.67 CELLS/uL; BASOPHIL [4]: 0%; EOSINOPHIL [4]: 0%; ERYTHROCYTE COUNT [4]: 5.12 x10E6/uL; HEMATOCRIT [4]: 32.97%; HEMOGLOBIN [4]: 13.17 G/DL; LEUKOCYTE COUNT [4]: 13.57 x10E3/uL; LYMPHOCYTE [4]: 90.67%; MEAN CORPUSCULAR HEMOGLOBIN [4]: 25.77 pg; MEAN CORPUSCULAR HEMOGLOBIN CONCENTRATION [4]: 39.93 G/DL; MEAN CORPUSCULAR VOLUME [4]: 64.53 fL; MONOCYTE [4]: 2%; NEUTROPHIL [4]: 7.33%; NUCLEATED RED BLOOD CELLS [4]: 0.33 /100WBC; PLATELET COUNT [4]: 1460 x10E3/uL; ALANINE AMINOTRANSFERASE [4]: 52.33 u/L; ALBUMIN [4]: 4.33 G/DL; ALKALINE PHOSPHATASE [4]: 352.67 u/L; ASPARTATE AMINOTRANSFERASE [4]: 78.67 u/L; BLOOD UREA NITROGEN [4]: 18 mg/dL; CARBON DIOXIDE [4]: 34.67 mmol/L; CHLORIDE [4]: 100.67 MEQ/L; CHOLESTEROL [4]: 77.33 mg/dL; CREATINE PHOSPHOKINASE [4]: 322.67 u/L; CREATININE [4]: 0.29 mg/dL; GLUCOSE [4]: 137 mg/dL; LACTATE DEHYDROGENASE [4]: 304 u/L; LIPASE [4]: 11 u/L; PHOSPHORUS [4]: 11.17 mg/dL; POTASSIUM [4]: 6.32 MEQ/L; SODIUM [4]: 143.43 MEQ/L; TOTAL BILIRUBIN [4]: 0.23 mg/dL; TOTAL PROTEIN [4]: 5.9 G/DL; URIC ACID [4]: 1.43 mg/dL
